Experimental data as given in patent US11319316B2, “Compounds that induce degradation of anti-apoptotic Bcl-2 family proteins and the uses thereof” (BioVentures, LLC, priority 2016, dated 2022).

How the values were obtained:
Type in all cases: cell-based
Normal WI38 (NSC) = assay: Viability of normal WI38 cells (NSC), 72 h, PI staining and flow cytometry; settings: Homo sapiens, WI-38, viable (PI-) cells as percentage of vehicle control
Experimental: (§1) Normal WI38 (NSC) and IR-induced senescent WI38 cells (IR-SC) were incubated with vehicle or increasing concentrations of compounds of Formula (I) or Formula (II) for 72 hours. The cells were digested with 0.25% trypsin and 1 mM EDTA, and harvested in PBS containing 2% FBS. After incubation with propidium iodide (PI, 100 ng/ml) in PBS at room temperature for 1 minute, cells were centrifuged at 1,200 rpm for 6 minutes to remove PI and then resuspended in PBS containing 2% FBS for analysis using a flow cytometer. Viable cells (PI-cells) were analyzed by flow cytometry at a constant flow rate to count the number of cells and calculated as a percentage of control cells treated with vehicle. Table 1 depicts the EC50 values of the compounds of Formula (I) and compounds of Formula (II) against normal WI38 and IR-induced senescent WI38.

RS4; 11 cancer cells = assay: Cancer cell viability by MTS, 72 h, RS4;11; settings: Homo sapiens, RS4;11 cells
Experimental: (§2) RS4; 11 and NCI-H146 cancer cells were incubated with vehicle or increasing concentrations of compounds of Formula (I) and Formula (II). At 72 hours post-treatment cell viability was measured by MTS and EC50 was calculated as a percentage of control cells treated with vehicle. Table 1 depicts the EC50 values of compounds of Formula (I) and Formula (II) against RS4; 11 and NCI-H146.

[1] = test system: IR-induced senescent WI38 cells (IR-SC); assay: Viability of IR-induced senescent WI38 cells (IR-SC), 72 h, PI staining and flow cytometry; settings: for EC50: Homo sapiens, WI-38, IR-induced senescent WI38 cells, 72 hours, viable (PI-) cells as percentage of vehicle control; for Ratio NSC/SC: ratio of WI38 EC50 in NSC to EC50 in IR-SC
Experimental: as §1

Bcl-xL [2] = target: T1, Bcl-xL (Homo sapiens, UniProt Q07817); assay: Bcl-xL depletion in normal WI38 (NC-WI38) cells; settings: 2 μM; FIG. 1
T1 construct: IR-SC WI38 cells were incubated with vehicle or increasing concentrations of XZ-14439; endogenous in cells; host or cells: WI38 cells (normal NC-WI38 and ionizing-radiation-induced senescent IR-SC WI38)

Bcl-xL [3] = target: T1, Bcl-xL; assay: Protein degradation assay (Western blot) in IR-SC WI38 cells
Experimental: IR-SC WI38 cells were incubated with vehicle or increasing concentrations of XZ-14439 for 18 hours at increasing […] (FIG. 3A) and at a fixed concentration of XZ-14439 for increasing times (FIG. […]). The cells were digested with 0.25% trypsin and 1 mM EDTA, and harvested in RIPA lysis buffer with 1% Phosphatase Inhibitor Cocktail 3 and 1% Protease Inhibitor Cocktail. An equal amount of protein (15-30 μg/lane) from each cell extract was resolved on a 12% SDS-PAGE gel. Proteins were blotted onto a NOVEX PVDF membrane by electrophoresis. The membranes were blocked with TBS-T blocking buffer (5% nonfat milk in 25 mM Tris-HCL, pH 7.4; 3 mM KCl; […] NaCl; and 0.05% Tween) and probed with primary antibodies (at a predetermined optimal concentration) overnight at 4° C. or for 1 hour at room temperature. After extensive washing with TBS-T, the membranes were incubated with an appropriate peroxidase-conjugated secondary antibody for 1 hour at room temperature. After three washes with TBS-T, the proteins of interest were detected with ECL Western Blotting Detection Reagents and recorded with autoradiography (Pierce Biotech, Rockford, Ill., USA). The primary antibody Bcl-x (#2762), Bcl-2 antibody (#2872S) and β-actin (13E5, #4970) were purchased from Cell Signaling.
(§3) IR-SC WI38 (FIG. 4A) and RS4; 11 (FIG. 4B) cells were incubated with vehicle or increasing concentrations of compounds of Formula (I) or Formula (II) for 6 or 16 hours, at 1 μM (FIG. 4A) and 100 nm (FIG. 4B), respectively. The cells were harvested in RIPA lysis buffer with 1% Phosphatase Inhibitor Cocktail 3 and 1% Protease Inhibitor Cocktail. An equal amount of protein (15-30 μg/lane) from each cell extract was resolved on a 12% SDS-PAGE gel. Proteins were blotted onto a NOVEX PVDF membrane by electrophoresis. The membranes were blocked with TBS-T blocking buffer (5% nonfat milk in 25 mM Tris-HCL, pH 7.4; 3 mM KCl; 140 mM NaCl; and 0.05% Tween) and probed with primary antibodies (at a predetermined optimal concentration) overnight at 4° C. or for 1 hour at room temperature. After extensive washing with TBS-T, the membranes were incubated with an appropriate peroxidase-conjugated secondary antibody (Jackson ImmunoResearch Europe, Suffolk, UK) for 1 hour at room temperature. After three washes with TBS-T, the proteins of interest were detected with ECL Western Blotting Detection Reagents and recorded with autoradiography. The primary antibody Bcl-xl (#2762), Bcl-2 antibody (#2872S), Bcl-w (#2724S), Mcl-1 (#5453s) and β-actin (13E5, #4970) were purchased from Cell Signaling.

NCI-H146 cancer cells = assay: Cancer cell viability by MTS, 72 h, NCI-H146; settings: Homo sapiens
Experimental: as §2

Bcl-xL [4] = target: T1, Bcl-xL; assay: Protein degradation assay (Western blot) in RS4;11 cells; design: dose or concentration left out as unconfirmed
Experimental: as §3, with “IR-SC WI38 (FIG. 4A) and RS4; 11 (FIG. 4B) cells were incubated with vehicle or increasing concentrations of compounds of Formula (I) or Formula (II) for 6 or 16 hours, at 1 μM (FIG. 4A) and 100 nm (FIG. 4B), respectively.” left out

T1 sequence (Q07817 whole entry): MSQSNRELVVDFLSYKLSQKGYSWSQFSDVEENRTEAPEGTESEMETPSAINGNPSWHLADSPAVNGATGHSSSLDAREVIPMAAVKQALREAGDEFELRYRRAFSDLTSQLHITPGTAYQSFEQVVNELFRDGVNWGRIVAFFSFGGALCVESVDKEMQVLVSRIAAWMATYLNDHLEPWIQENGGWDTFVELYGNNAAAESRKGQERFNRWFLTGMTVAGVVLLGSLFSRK

O=C1CCC(N2C(=O)c3cccc(NCCOCCOCCOCc4cn(CCCC(=O)N5CCN(CC#Cc6ccc(OCCCc7sc(N8CCc9cccc(C(=O)Nc%10nc%11ccccc%11s%10)c9C8)nc7C(=O)O)c(F)c6)CC5)nn4)c3C2=O)C(=O)N1 (centres unmarked) [XZ-13906, 2-(8-(benzo[d]thiazol-2-ylcarbamoyl)-3,4-dihydroisoquinolin-2(1H)-yl)-5-(3-(4-(3-(4-(4-(4-((2-(2-(2-(2-(2,6-dioxopiperidin-3-yl)-1,3-dioxoisoindolin-4-ylamino)ethoxy)ethoxy)ethoxy)methyl)-1H-1,2,3-triazol-1-yl)butanoyl)piperazin-1-yl)prop-1-ynyl)-2-fluorophenoxy)propyl)thiazole-4-carboxylic acid]
EC50 (Normal WI38 (NSC)): 100 µM | EC50 (RS4; 11 cancer cells): > 2 µM | EC50 [1]: 2.4 µM | Ratio NSC/SC [1]: 41.67 | Bcl-xL depletion in normal WI38 (NC-WI38) (Bcl-xL [2]): depletes Bcl-xL | Bcl-xL depletion in IR-SC WI38 cells (Bcl-xL [3]; 2 μM, FIG. 1): depletes Bcl-xL | EC50 (NCI-H146 cancer cells): > 2 µM

CC1(C)CCC(c2ccc(Cl)cc2)=C(CN2CCN(c3ccc(C(=O)NS(=O)(=O)c4ccc(N[C@H](CCN5CCN(CCOCCNc6cccc7c6C(=O)N(C6CCC(=O)NC6=O)C7=O)CC5)CSc5ccccc5)c(S(=O)(=O)C(F)(F)F)c4)cc3)CC2)C1 (stereo partly drawn) [XZ-15416, 4-(4-((4′-chloro-4,4-dimethyl-3,4,5,6-tetrahydro-[1,1′-biphenyl]-2-yl)methyl)piperazin-1-yl)-N-((4-(((2R)-4-(4-(2-(2-((2-(2,6-dioxopiperidin-3-yl)-1,3-dioxoisoindolin-4-yl)amino)ethoxy)ethyl)piperazin-1-yl)-1-(phenylthio)butan-2-yl)amino)-3-((trifluoromethyl)sulfonyl)phenyl)sulfonyl)benzamide]
EC50 (Normal WI38 (NSC)): > 10 µM | Bcl-xL depletion in RS4; 11 cells (Bcl-xL [4]): deplete Bcl-xL | EC50 (RS4; 11 cancer cells): 0.0307 µM | EC50 [1]: < 0.156 µM | Ratio NSC/SC [1]: >64.02 | Bcl-xL depletion in IR-SC WI38 cells (Bcl-xL [3]; 1 μM (FIG. 4A)): deplete Bcl-xL | EC50 (NCI-H146 cancer cells): > 0.01 µM
